Patent publication US11903388B2 (priority 2018, dated 2024)

Test system: Aspergillus parasiticus B62
Type: cell-based

Structure (SMILES): Cc1cc(OC(=O)c2c(C)cc(O)cc2O)cc(O)c1C(=O)O [Lecanoric acid]
- growth: inhibitory effects

Structure (SMILES): COC(=O)c1c(C)cc(O)cc1O [methyl-orsellinate]
- growth: inhibitory effects
